Patent US10376586B2, “Method and compositions for solubilizing non-polar constituents” (Entourage Bioscience, LLC, priority 2016, dated 2019)
Each block holds one compound with its values, some of them ahead of it.

Assays:
[1] = solubility / solubilization in the MCT carrier oil; details: for stable solution concentration in MCTs: MCTs (0.0-6.0% C6, 6.0-60% C8, 6.0-60% C10), stirring at 85 degrees Celsius for 5 minutes
Excerpt: The process for solubilizing target compounds according to the disclosure comprises, in particular, the following steps: (a) preparation of a carrier liquid solution comprising a mixture of medium-chain triglycerides, an amount of this carrier liquid solution is used, the amount depending on the amount of target compound to be solubilized; (b) admixing the carrier liquid solution with the target compound; (c) and, optionally, admixing a stabilizing compound to the carrier liquid/target compound. In some cases, depending on the compound to be solubilized, solvents that dissolve both polar and non-polar compounds such as ethanol, methanol, acetonitrile, 1-butanol or isopropyl alcohol, may be added to encourage solubilization, and then removed by vacuum evaporation. As another aspect, during compounding, dry inert gas may be filtered through the mixture to remove moisture.
Riboflavin is known to have poor solubility in aqueous solutions and organic solvents. […] It may be desirable to solubilize a higher concentration of riboflavin in an ENDS. […] This mixture may then be added to MCTs (for example 0.0-6.0% C6, 6.0-60% C8, and/or 6.0-60% C10), homogenized for 5 minutes and subsequently heated to approximately 85 degrees Celsius at 250 mb (or 250 hPa) pressure in a rotary evaporator to drive off the methanol.
Another example may be sulbutiamine. Sulbutiamine is a disulfide dimer of thiamine. […] It may be desirable to provide sulbutiamine in an ENDS. […]

[2] = cited from earlier work
[3] = cited from earlier work; remark: listed apart in the source
[4] = cited from earlier work; remark: listed apart in the source
[5] = cited from earlier work; remark: listed apart in the source

Structure (SMILES): C=C1CC[C@H](O)C/C1=C/C=C1\CCC[C@]2(C)[C@@H]([C@H](C)CCCC(C)C)CC[C@@H]12 [vitamin-D3]
miscibility with the carrier oil ([1]; simple admixing with the carrier oil): any proportion

Structure (SMILES): CC1=C[C@H](O)CC(C)(C)[C@H]1/C=C/C(C)=C/C=C/C(C)=C/C=C/C=C(C)/C=C/C=C(C)/C=C/C1=C(C)C[C@@H](O)CC1(C)C [lutein]
stable solution concentration in MCTs [1]: 200 mg/mL

Structure (SMILES): C=C(C)[C@@H]1CCC(C)=C[C@H]1c1c(O)cc(CCCCC)cc1O [Cannabidiol, cannabidiol, reference compound]
solubilized amount in MCTs ([1]; MCTs, stirring at 45 to 65 degrees Celsius for 5 minutes): up to 80 percent v/v

Structure (SMILES): CC(=C(CCOC(=O)C(C)C)SSC(CCOC(=O)C(C)C)=C(C)N(C=O)Cc1cnc(C)nc1N)N(C=O)Cc1cnc(C)nc1N (stereo in doubt) [sulbutiamine, reference compound]
stable solution concentration in MCTs [1]: 200 mg/mL | solubility in aqueous solutions ([2]; aqueous solutions): insoluble | solubility in fats [3]: highly soluble

Structure (SMILES): O=C(O)Cc1ccccc1 [phenylacetic acid]
log P (partition co-efficient) [4]: comparable to benzoic acid | pKa [5]: comparable to benzoic acid

The next lines start with results.

stable solution concentration in MCTs [1]: 200 mg/mL
Structure (SMILES): CCCCCCCCCCCCCCCC(=O)OC[C@H](O)[C@H]1OC(=O)C(O)=C1O [ascorbyl palmitate]

solubility in MCTs versus aqueous solutions [1]: an order of magnitude greater solubility
Structure (SMILES): Cc1cc2nc3c(=O)[nH]c(=O)nc-3n(C[C@H](O)[C@H](O)[C@H](O)CO)c2cc1C [riboflavin]
solubility in vegetable glycerin, propylene glycol and water ([2]; vegetable glycerin, propylene glycol and water): less than 0.2 mg/ml

stable solution concentration in MCTs [1]: 200 mg/mL
Structure (SMILES): CC(C)=CCC/C(C)=C/C=C/C(C)=C/C=C/C(C)=C/C=C/C=C(C)/C=C/C=C(C)/C=C/C=C(\C)CCC=C(C)C [lycopene]

quantity incorporated into the carrier oil by admixing [1]: < 2 mg/mL
Structure (SMILES): CC1=CCCC(C)(C)C1/C=C/C(C)=C/C=C/C(C)=C/C=C/C=C(C)/C=C/C=C(C)/C=C/C1=C(C)CCCC1(C)C (stereo not drawn) [alpha-carotene]

quantity incorporated into the carrier oil by admixing [1]: < 2 mg/mL
Structure (SMILES): CC1=C(/C=C/C(C)=C/C=C/C(C)=C/C=C/C=C(C)/C=C/C=C(C)/C=C/C2=C(C)C(=O)[C@@H](O)CC2(C)C)C(C)(C)C[C@H](O)C1=O [Astaxanthin]
